{
  "source": "patent US6979447B2",
  "about": "“Immunomodulation and effect on cell processes relating to serotonin family receptors” (Philadelphia Health and Education Corporation, priority 2001, dated 2005)",
  "key": {"murine lymphocytes": {"tested_on": "murine lymphocytes", "assay": "Murine mixed lymphocyte reaction (BALB/c vs. C57BL6)", "type": "cell-based, mouse", "conditions": "BALB/c vs. C57BL6, FIG. 10", "experimental": "MLRs were performed essentially as described in Current Protocols in Immunology (1999, Section 3.12.6-3.12.7). That is, the primary spleen cells obtained from C57/B6J mice were used as stimulators. They were purified as described in Current Protocols in Immunology (1999, Section 3.1.5), and were irradiated (35 Gy) at the Hahnemann Hospital (Philadelphia, Pa.) blood bank facility. Primary spleen cells obtained from BALB/c/BYJ were depleted from the adherent cells using a nylon wool column, and were used as responders.\nThe various inhibitors were pre-plated onto 96 well, U-bottom plates and all experimental conditions were assayed at least in triplicate. 100,000 C57/B6 cells in RPMI medium, supplemented with 10% FBS, were plated into each well. 200,000 of BALB/c/BYJ cells were plated over the stimulator cells, to a final volume of 200 μl/well. Background controls received either no BALB/c cells, or no C57/B6 cells. One micro Ci of tritiated thymidine was added to each well after 4 days, and the plates were harvested 12 hours later."}, "human lymphocytes [1]": {"tested_on": "human lymphocytes", "assay": "Human mitogenic (ConA) stimulation, 3H-thymidine incorporation", "type": "cell-based", "conditions": "for effect on activation / proliferative response: ConA 5 μg/ml, FIGS. 7A, 8A, 9A", "experimental": "Blood from healthy volunteers was drawn using venipuncture, using Vacutainer collection sets and heparinized collection vials. The blood was diluted 1:1 using HBSS to a total volume of 30 ml in 50 ml conical tubes (Fisher Scientific, Co., Pittsburgh, Pa.). […] Cells from the buffy coats were collected and the residual Histopaque was washed away using repeated centrifugations in HBSS. After washes, cells were resuspended at 5 million cells per ml in RPMI, supplemented with 2% FBS. To remove adherent cells, the suspension was plated onto a 6 well flat-bottom plate (Corning Costar), 3 ml/well, and incubated for 2 hours at 37° C., 5% CO2. Non-adherent cells were harvested after this incubation, were counted and resuspended in RPMI supplemented with 10% human serum (Sigma).\nAll drugs were pre-plated before the cell suspension was added onto each well of a 96-well round-bottom plate. All experimental conditions were assayed in at least triplicate. Cells suspended in RPMI supplemented with 10% human serum were plated at 100,000 cells per well to a final volume of 200 μl. […] Control samples received no ConA stimulation. The plates were incubated at 37° C. and 5% CO2. One microCurie of tritiated thymidine was added to each well after 60 hours, and the plates were harvested 12 hours later."}, "human lymphocytes [2]": {"tested_on": "human lymphocytes", "assay": "Human mixed lymphocyte reaction (allogeneic stimulation)", "type": "cell-based", "conditions": "allogeneic stimulation, harvested 120 hours, FIGS. 7B, 8B, 9B", "from_the_text": "Blood from two healthy, non-related, donors was taken as described above. Peripheral blood mononuclear cells were isolated as described previously elsewhere. The adherent cells were separated from the suspension cells as described previously for both donors. Suspension cells from both donors (donors A and B) were used as responders. The remaining adherent cells from each of the donors were used as stimulators against a different donor (suspension A against adherent B and adherent A against suspension B). The stimulator cells were irradiated at 35 Gy. Drugs were pre-plated onto 96 well, U-bottom plates in triplicate. 200,000 “stimulator” cells in RPMI supplemented with 10% human serum were then plated in each well. 200,000 “responder” cells in the same medium were then plated over stimulators to a final volume of 200 μl/well. Background controls received either no stimulator cells, or no responder cells. The plates were incubated at 37° C. and 5% CO2. 1 μCi of tritiated thymidine was added to each well after 4.5 days, and the plates were harvested 12 hours later."}, "[3]": {"tested_on": "RPMI 8226 multiple myeloma cells", "assay": "RPMI 8226 cell proliferation / viability (trypan blue, MTT, 3H-thymidine)", "type": "cell-based, human", "conditions": "low dose-titration, FIGS. 23, 24 and 25", "experimental": "The human plasmacytoma (multiple myeloma) cell line, RPMI 8226 (American Type Culture Collection, Manassas, Va.), was cultured in RPMI 1640 supplemented with 10 mM HEPES, 1 mM sodium pyruvate, 4.5 g/L glucose, 1.5 g/L bicarbonate and 20% FBS (non-heat inactivated).\nCell proliferation was assayed by three methods—Trypan Blue Exclusion was used to quantify the number of viable cells in culture; 3-(4,5-dimethylthiazol-2-yl)-2,5-diphenyl tetrazolium bromide (MTT) reduction was used to assay mitochondrial activity (and thus cell viability); and ^3H-Thymidine uptake was employed to assay for active DNA synthesis.\nThe following 5-HT receptor modulating compounds were tested for their effects on RPMI 8226 cells in vitro cultured at the described densities and across the indicated concentration ranges."}, "RPMI-8226 cells": {"tested_on": "RPMI-8226 cells", "assay": "Hematoxylin-eosin / bis-benzamide staining of RPMI-8226 cytospins", "type": "cell-based, human", "experimental": "2.0×10^5 RPMI-8226 cells were cultured, in 6-well culture plates, in the presence of the indicated drug concentrations, in a total of 5 mL RPMI-1640 supplemented with 10% FBS. Each well was harvested in its entirety and divided into two identical samples for cytospins.\n1.0×10^5 RPMI-8226 cells from each treatment group were loaded into Cyto-funnels and centrifuged at 500 rpm for 4 minutes with medium acceleration. Slides were then fixed through graded methanol in PBS (100%, 5 minutes; 80%, 5 minutes; 50%, 5 minutes), washed for 5 minutes in PBS and stored in PBS at 4° C. until stained.\nCytospun slides were stained with Hematoxylin and Eosin, followed by the nuclear stain, bis-benzamide, rinsed and mounted according to standard staining protocols. Slides were visualized under both brightfield and fluorescent light to generate matched images of the same slide field (see, e.g., FIGS. 28 and 29)."}, "T cells": {"tested_on": "T cells", "assay": "Macrophage media-conditioning study, T cell proliferation in conditioned media", "type": "cell-based, mouse", "conditions": "added to conditioned media, FIG. 1", "from_the_text": "Femur and tibia bones were harvested from the hind limbs of 6-8 week old C57/B6J mice (Jackson Laboratories, Bar Harbor, Me.). The distal ends of the bones were removed, exposing the marrow plugs. Using a 22 gauge needle (Becton-Dickinson, Lincoln Park, N.J.), the marrow cavities were flushed with RPMI medium supplemented 2% FBS. The cell suspension was then passed through a nylon mesh to remove stromal cells. Red blood cells were lysed using ACK (ammonium chloride potassium lysis buffer; 0.15 M NH4Cl, 10 mM KHCO3, 0.1 mM EDTA) buffer as described in Current Protocols in Immunology (Section 3.1.5).\nCells were resuspended at 10^7 cells/ml in RPMI medium, containing 10% FBS, 500 units/ml of murine M-CSF, and 3 ml/well of cell suspension were plated onto a 6 well flat-bottom plate. […] Cells were grown for 4 days. Spleens of 6-8 week old BALB/c/BYJ were harvested, and single cell suspension was made. Red blood cells were removed as described above. Adherent cells were removed by 1.5 hour incubation on a nylon wool column, and suspension cells were collected. The BALB/c cells were then plated over the C57/B6 cells (see supra), at 1.2×10^6 cells/well, in 0.65 ml (bringing brought the final volume of each well to 1.3 ml). The cells were grown for 2.5 days. When appropriate, fluoxetine or BCH were added at the beginning of this incubation. The medium from the mixed cell cultures was harvested, centrifuged at 1200 RPM to remove cells, and filtered using a 0.22 microns syringe filter (Corning). This filtered medium was used to support another round of cell proliferation."}},
  "data": [
    {"compound": "5-methyl hydroxytryptamine", "values": [
      {"measurement": "effect on outcome of murine MLR", "setting": "murine lymphocytes", "result": "slight enhancement"}
    ]},
    {"compound": "CNc1cc(NS(=O)(=O)c2ccc(N)cc2)nc(NC)n1", "note": "[Ro 04-679]", "values": [
      {"measurement": "effect on outcome of murine MLR", "setting": "murine lymphocytes", "result": "no effects on the outcome of the assay"}
    ]},
    {"compound": "Cc1cc2c(cc1Cl)N(C(=O)Nc1ccc(Oc3cccnc3C)nc1)CC2", "note": "[SB 242084]", "values": [
      {"measurement": "inhibitory profile when dosed at time=0 or time=48 hours", "setting": "human lymphocytes [1]; ConA 1 μg/ml, harvested 72 hours, FIG. 12", "result": "retained the complete inhibitory profile"},
      {"measurement": "effect on activation / proliferative response", "setting": "human lymphocytes [1]; harvested 72 hours", "result": "inhibit the activation response at pharmacologically relevant concentrations"},
      {"measurement": "effect on activation / proliferative response", "setting": "human lymphocytes [2]", "result": "inhibit the activation response at pharmacologically relevant concentrations"},
      {"measurement": "effect on growth of RPMI-8226 cells", "setting": "[3]", "result": "strong inhibition of growth"},
      {"measurement": "chromatin / nuclear morphology", "setting": "RPMI-8226 cells; 50 μM, 9 hour treatment, FIGS. 28, 29", "result": "condensed and fragmented chromatin"},
      {"measurement": "induction of programmed cell death", "setting": "RPMI-8226 cells; FIGS. 28 and 29", "result": "induced programmed cell death comparable to that induced by the topoisomerase I inhibitor, camptothecin"}
    ]},
    {"compound": "CSc1ccc2c(c1)C(N1CCN(C)CC1)Cc1ccccc1S2", "note": "(centres unmarked) [methiothepin]", "values": [
      {"measurement": "effect on activation / proliferative response", "setting": "human lymphocytes [1]; harvested 72 hours", "result": "inhibit the activation response at pharmacologically relevant concentrations"},
      {"measurement": "effect on activation / proliferative response", "setting": "human lymphocytes [2]", "result": "inhibit the activation response at pharmacologically relevant concentrations"},
      {"measurement": "effect on growth of RPMI-8226 cells", "setting": "[3]", "result": "strong inhibition of growth"}
    ]},
    {"compound": "N[C@@H](Cc1c[nH]c2ccccc12)C(=O)O", "note": "[tryptophan]", "values": [
      {"measurement": "relief of phenelzine-induced inhibition", "setting": "human lymphocytes [1]; ConA 1 μg/ml, added to phenelzine-inhibited cells, 100 μM each, FIG. 6", "result": "had very little effect"},
      {"measurement": "effect on proliferative response", "setting": "human lymphocytes [1]; ConA 1 μg/ml, reagent 100 μM, FIG. 6", "result": "enhanced the proliferative response"},
      {"measurement": "effect on proliferative response", "setting": "human lymphocytes [1]; highest ConA dose, 10 μg/ml, harvest 72 hours, FIG. 5C", "result": "no enhancement at the highest level"},
      {"measurement": "effect on stimulation of ConA-stimulated human PBLs", "setting": "human lymphocytes [1]; reagents at 400 μM, time course, FIG. 4", "result": "enhanced the maximal stimulation of the cells"},
      {"measurement": "effect on proliferative response", "setting": "human lymphocytes [1]; weakest signal strength, 0.1 μg/ml ConA, harvest 72 hours, FIG. 5A", "result": "augments the proliferative response"},
      {"measurement": "restoration of T cell proliferation in conditioned media", "setting": "T cells", "result": "had no effect"}
    ]}
  ]
}
